Legend:
Septoria tritici = experiment: Test of Preventive Effect on Wheat Leaf Blotch; format: in vivo; settings: wheat (Apogee), foliage application 500 ppm, inoculation after 3 or 4 days, 18° C. high humidity 3 days then lighting 14 to 18 days
Experimental: (§1) In the following Test Examples, foliage application was accomplished by spraying each test solution over a different plant.
(§2) The controlling effect was evaluated by visually observing the area or lesion spots on each of test plants at the time of investigation and comparing the area of lesion spots on a plant treated with the present compound with that on an untreated plant.
Each of plastic pots was filled with sandy loam and sown with wheat (cultivar: Apogee), followed by growing in a greenhouse for 10 days. Each of the present compounds 49 to 52 was formulated into a flowable formulation according to Formulation Example 6. The flowable formulation was diluted to a predetermined concentration (500 ppm) with water, and foliage application of the dilution was carried out so that the dilution could adhere sufficiently to the surfaces of leaves of the grown wheat seedling. After the application, the plant was air-dried. After 3 or 4 days, the plant was inoculated by spraying a water suspension of spores of Septoria tritici. After the inoculation, the plant was held under high humidity conditions at 18° C. for 3 days and then under lighting condition for 14 to 18 days. Then, the area of lesion spots was investigated.

Stagonospora nodorum = experiment: Test of Preventive Effect on Wheat Glume Blotch; format: in vivo; settings: wheat (Shirogane), foliage application 500 ppm before inoculation, 18° C. 4 days dark high humidity then 4 days lighting
Experimental: as §1, §2
Each of plastic pots was filled with sandy loam and sown with wheat (cultivar; Shirogane), followed by growing in a greenhouse for 10 days.
Each of the present compounds 1 and 3 to 37 was formulated into a flowable formulation according to Formulation Example 6. The flowable formulation was diluted to a predetermined concentration (500 ppm) with water, and foliage application of the dilution was carried out so that the dilution could adhere sufficiently to the surfaces of leaves of the grown wheat seedling.
The wheat which was applied by the dilution was air-dried and then inoculated by spraying a water suspension of spores of Stagonospora nodorum.
After the inoculation, the plant was held under darkness and high humidity conditions at 18° C. for 4 days and then under lighting conditions for 4 days, and then the area of lesion spots was investigated.

Row | SMILES | area of lesion spots on the treated plant relative to that on an untreated plant (Septoria tritici) [%] | area of lesion spots on the treated plant relative to that on an untreated plant (Stagonospora nodorum) [%]
1 | CC1CCCCC1NC(=O)c1cc(N)nc(F)c1 (centres unmarked) [compound 50] | ≤ 30 | –
2 | O=C(NCC1CCCCC1)c1ccnc(F)c1 [compound 4] | – | ≤ 30

From US20100137376A1 (priority 2007, published 2010)
